Consider 32 molecules from patent US10526327B2, “Histone demethylase inhibitors” (CELGENE QUANTICEL RESEARCH, INC., priority 2013, dated 2020).

A word on the IC50: it is the concentration at which inhibition is half-maximal.

For one assay, the target named is T1, Jarid1B (Homo sapiens, UniProt Q9UGL1).
T1 construct: purchased BPS Bioscience or custom made by MolecularThroughput 50121
T1 sequence (Q9UGL1 2-751): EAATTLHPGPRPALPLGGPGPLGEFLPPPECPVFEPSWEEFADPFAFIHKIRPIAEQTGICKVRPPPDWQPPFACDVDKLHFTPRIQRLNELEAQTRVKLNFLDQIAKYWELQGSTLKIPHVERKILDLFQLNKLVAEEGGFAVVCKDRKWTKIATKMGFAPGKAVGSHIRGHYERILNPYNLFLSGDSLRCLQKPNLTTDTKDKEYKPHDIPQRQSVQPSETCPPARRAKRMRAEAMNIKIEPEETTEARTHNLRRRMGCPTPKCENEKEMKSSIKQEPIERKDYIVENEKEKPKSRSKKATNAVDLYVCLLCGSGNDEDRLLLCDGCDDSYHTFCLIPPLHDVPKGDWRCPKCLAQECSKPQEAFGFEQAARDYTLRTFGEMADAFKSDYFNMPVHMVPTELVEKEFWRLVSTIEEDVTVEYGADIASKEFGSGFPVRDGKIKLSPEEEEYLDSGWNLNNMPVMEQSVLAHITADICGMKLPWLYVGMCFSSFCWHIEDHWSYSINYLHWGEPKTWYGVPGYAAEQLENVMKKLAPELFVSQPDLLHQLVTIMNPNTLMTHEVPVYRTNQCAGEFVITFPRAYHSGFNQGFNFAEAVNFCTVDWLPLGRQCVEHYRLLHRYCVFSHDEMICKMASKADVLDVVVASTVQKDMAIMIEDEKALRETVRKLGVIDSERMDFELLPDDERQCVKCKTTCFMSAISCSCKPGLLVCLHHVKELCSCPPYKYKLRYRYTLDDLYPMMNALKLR
In words: Jarid1B in vitro enzyme inhibition assay (TR-FRET). It is filed as biochemical. An outline of the steps: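 Jarid1B (AA 2-751, baculovirus-expressed) at 0.8 nM with 300 nM biotin-H3K4me3 peptide and 2 μM α-ketoglutarate in HEPES pH 7.3 with ascorbate and Fe(II), 30 min at room temperature. Stopped with EDTA; H3K4me1-2 product detected by TR-FRET (665/615 ratio) and IC50 fitted from 11-point dilutions.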

For another assay, the system named is KDM5A/B. In words: In vitro cell-based assay: immuno-blot quantification of tri-methyl H3K4 in ZR-75-1 breast cancer cells. The conditions noted are these: 72 hours, tri-methyl H3K4 level relative to GAPDH, percent of DMSO, read-out: Cellular IC50. Summed up:
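ZR-75-1 breast cancer cells treated 72 h with 11-point compound dilutions (1250 μM to 10 nM). H3K4me3 quantified by infrared immunoblot densitometry, normalized to GAPDH and expressed as percent of DMSO control; relative IC50 from curve fit.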

As to `O=S(=O)(C1CC1)N1CCCC(n2cc(Oc3nc(O)c4ccncc4n3)cn2)C1` (stereo in doubt) [Example 151, 2-({1-[(3S)-1-(cyclopropanesulfonyl)piperidin-3-yl]-1H-pyrazol-4-yl}oxy)pyrido[3,4-d]pyrimidin-4-ol], the results for the IC50 against Jarid1B and with KDM5A/B were not above 100 nM and 100 to 1000 nM, respectively. As for `Oc1nc(Oc2cnn(C3CCCN(c4ccc(F)cc4)C3)c2)nc2cnccc12` (stereo in doubt) [Example 169, 2-({1-[(3R)-1-(4-fluorophenyl)piperidin-3-yl]-1H-pyrazol-4-yl}oxy)pyrido[3,4-d]pyrimidin-4-ol], the IC50 on Jarid1B is not above 100 nM.

With `Oc1nc(OCCC(F)(F)F)nc2cnccc12` [Example 13, 2-(3,3,3-trifluoropropoxy)pyrido[3,4-d]pyrimidin-4-ol], the concentration for half-maximal inhibition (IC50) against Jarid1B is 100 to 1000 nM; with KDM5A/B, more than 10000 nM.

The molecule `CC(C)COc1nc(O)c2ccncc2n1` [Example 14, 2-(2-methylpropoxy)pyrido[3,4-d]pyrimidin-4-ol] yielded an IC50 at Jarid1B of 100 to 1000 nM. In the case of `CC(C)CCOc1nc(O)c2ccncc2n1` [Example 15, 2-(3-methylbutoxy)pyrido[3,4-d]pyrimidin-4-ol], the IC50 against Jarid1B is not above 100 nM; in the assay with KDM5A/B it was more than 10000 nM. `CCC(C)COc1nc(O)c2ccncc2n1` (stereo not drawn) [Example 16, 2-(2-methylbutoxy)pyrido[3,4-d]pyrimidin-4-ol]: the IC50 on Jarid1B is 100 to 1000 nM.

As for `CC(COc1nc(O)c2ccncc2n1)c1ccccc1` (stereo not drawn) [Example 17, 2-(2-phenylpropoxy)pyrido[3,4-d]pyrimidin-4-ol], on Jarid1B, the concentration for half-maximal inhibition (IC50) was 100 to 1000 nM. In the case of `Oc1nc(OCCc2ccccc2)nc2cnccc12` [Example 18, 2-(2-phenylethoxy)pyrido[3,4-d]pyrimidin-4-ol], the values for the 50% inhibitory concentration (IC50) against Jarid1B and in the assay with KDM5A/B were not above 100 nM and 1000 to 10000 nM, respectively.

As to `CC(Cc1ccccc1)Oc1nc(O)c2ccncc2n1` (stereo not drawn) [Example 19, 2-(1-phenylpropan-2-yloxy)pyrido[3,4-d]pyrimidin-4-ol], the IC50 against Jarid1B was 1000 to 10000 nM. The same measure, in the same setting: in the case of `CN(C)CCCOc1nc(O)c2ccncc2n1` [Example 21, 2-[3-(dimethylamino)propoxy]pyrido[3,4-d]pyrimidin-4-ol] it was 1000 to 10000 nM; in that of `COCCOc1nc(O)c2ccncc2n1` [Example 22, 2-(2-methoxyethoxy)pyrido[3,4-d]pyrimidin-4-ol], 100 to 1000 nM; in that of `Cn1cnc(-c2nccc3c(O)nc(OCc4ccccc4C(F)(F)F)nc23)c1` [Example 107, 8-(1-methyl-1H-imidazol-4-yl)-2-{[2-(trifluoromethyl)phenyl]methoxy}pyrido[3,4-d]pyrimidin-4-ol], not above 100 nM.

For the molecule `Cn1cnc(-c2nccc3c(O)nc(O[C@H](c4ccccc4)C(F)(F)F)nc23)c1` [Example 108, 8-(1-methyl-1H-imidazol-4-yl)-2-[(1R)-2,2,2-trifluoro-1-phenylethoxy]pyrido[3,4-d]pyrimidin-4-ol], the IC50 on Jarid1B was 1000 to 10000 nM. The same measure, in the same setting: in the case of `Cn1cnc(-c2nccc3c(O)nc(O[C@@H](c4ccccc4)C(F)(F)F)nc23)c1` [Example 109, 8-(1-methyl-1H-imidazol-4-yl)-2-[(1S)-2,2,2-trifluoro-1-phenylethoxy]pyrido[3,4-d]pyrimidin-4-ol] it was 1000 to 10000 nM; in that of `CCC(Oc1nc(O)c2ccnc(-c3cn(C)cn3)c2n1)C(F)(F)F` (stereo not drawn) [Example 110, 8-(1-methyl-1H-imidazol-4-yl)-2-[(1,1,1-trifluorobutan-2-yl)oxy]pyrido[3,4-d]pyrimidin-4-ol], 100 to 1000 nM; in that of `Cn1cnc(-c2nccc3c(O)nc(OCc4ccc(C(F)(F)F)cc4)nc23)c1` [Example 111, 8-(1-methyl-1H-imidazol-4-yl)-2-{[4-(trifluoromethyl)phenyl]methoxy}pyrido[3,4-d]pyrimidin-4-ol], 100 to 1000 nM. With `Cn1cnc(-c2nccc3c(O)nc(OCc4ccc(Cl)cc4)nc23)c1` [Example 112, 2-[(4-chlorophenyl)methoxy]-8-(1-methyl-1H-imidazol-4-yl)pyrido[3,4-d]pyrimidin-4-ol], on Jarid1B, the concentration for half-maximal inhibition (IC50) was not above 100 nM. `Oc1nc(Oc2ccc(Cl)c(Cl)c2)nc2cnccc12` [Example 114, 2-(3,4-dichlorophenoxy)pyrido[3,4-d]pyrimidin-4-ol]: the half-inhibitory concentration (IC50) on Jarid1B is not above 100 nM.

In the case of `Oc1nc(Oc2cnn(C(c3ccccc3)C3CC3)c2)nc2cnccc12` (stereo not drawn) [Example 116, 2-({1-[cyclopropyl(phenyl)methyl]-1H-pyrazol-4-yl}oxy)pyrido[3,4-d]pyrimidin-4-ol], on Jarid1B, the IC50 was not above 100 nM. On the same count and under the same terms, next, `Oc1nc(Oc2cnn(C3CCN(Cc4ccccc4)CC3)c2)nc2cnccc12` [Example 123, 2-{[1-(1-benzylpiperidin-4-yl)-1H-pyrazol-4-yl]oxy}pyrido[3,4-d]pyrimidin-4-ol]: not above 100 nM; `O=C(C1CCNCC1)N1CC[C@H](n2cc(Oc3nc(O)c4ccncc4n3)cn2)C1` [Example 143, 2-({1-[(3S)-1-(piperidine-4-carbonyl)pyrrolidin-3-yl]-1H-pyrazol-4-yl}oxy)pyrido[3,4-d]pyrimidin-4-ol]: not above 100 nM; `CNCC(=O)N1CC[C@H](n2cc(Oc3nc(O)c4ccncc4n3)cn2)C1` [Example 144, 1-[(3S)-3-[4-({4-hydroxypyrido[3,4-d]pyrimidin-2-yl}oxy)-1H-pyrazol-1-yl]pyrrolidin-1-yl]-2-(methylamino)ethan-1-one]: not above 100 nM. On the same count and under the same terms, in the case of `Oc1nc(Oc2cnn([C@@H]3CCCNC3)c2)nc2cnccc12` [Example 149, 2-({1-[(3R)-piperidin-3-yl]-1H-pyrazol-4-yl}oxy)pyrido[3,4-d]pyrimidin-4-ol] it was not above 100 nM.

As to `O=S(=O)(c1ccccc1)N1CCC[C@@H](n2cc(Oc3nc(O)c4ccncc4n3)cn2)C1` [Example 152, 2-({1-[(3R)-1-(benzenesulfonyl)piperidin-3-yl]-1H-pyrazol-4-yl}oxy)pyrido[3,4-d]pyrimidin-4-ol], the IC50 against Jarid1B was not above 100 nM. Consider `Oc1nc(Oc2cnn([C@H]3CCCNC3)c2)nc2cnccc12` [Example 160, 2-({1-[(3S)-piperidin-3-yl]-1H-pyrazol-4-yl}oxy)pyrido[3,4-d]pyrimidin-4-ol], for which the IC50 against Jarid1B was not above 100 nM. The same measure, in the same setting: next, `Oc1nc(OCc2ccc(C(F)(F)F)cc2)nc2cnccc12` [Example 170, 2-{[4-(trifluoromethyl)phenyl]methoxy}pyrido[3,4-d]pyrimidin-4-ol]: 1000 to 10000 nM. Same read-out and setting: next, `Oc1nc(OCc2ccccc2Cl)nc2cnccc12` [Example 171, 2-[(2-chlorophenyl)methoxy]pyrido[3,4-d]pyrimidin-4-ol]: 100 to 1000 nM; `Oc1nc(OCc2c(Cl)cccc2Cl)nc2cnccc12` [Example 172, 2-[(2,6-dichlorophenyl)methoxy]pyrido[3,4-d]pyrimidin-4-ol]: 1000 to 10000 nM; `Oc1nc(OCc2cccc(Cl)c2Cl)nc2cnccc12` [Example 173, 2-[(2,3-dichlorophenyl)methoxy]pyrido[3,4-d]pyrimidin-4-ol]: 1000 to 10000 nM. Molecule `Oc1nc(OCCc2ccc(Cl)cc2)nc2cnccc12` [Example 174, 2-[2-(4-chlorophenyl)ethoxy]pyrido[3,4-d]pyrimidin-4-ol] had an IC50 against Jarid1B not above 100 nM.

`Oc1nc(OCCc2ccc(Cl)c(Cl)c2)nc2cnccc12` [Example 175, 2-[2-(3,4-dichlorophenyl)ethoxy]pyrido[3,4-d]pyrimidin-4-ol] showed an IC50 against Jarid1B of 1000 to 10000 nM. Same read-out and setting: in the case of `Oc1nc(OC(c2ccccc2)C(F)(F)F)nc2cnccc12` (stereo not drawn) [Example 176, 2-(2,2,2-trifluoro-1-phenylethoxy)pyrido[3,4-d]pyrimidin-4-ol] it was 100 to 1000 nM.
